Counter-ions that a name gives are not always drawn.
Assays:
human eosinophils [1] = experiment: Inhibition of histamine-induced chemotaxis of human eosinophils (eosinophil pre-incubation method); format: cell-based; conditions: for effect on histamine-induced chemotaxis: at concentrations of 10 micromolar; for IC50: Homo sapiens, Eosinophil, eosinophils pre-incubated with antagonist, concentration related
Procedure: (§1) A further functional assay for the histamine H4 receptor determines the ability of histamine to induce chemotaxis in eosinophils isolated from human blood. In this assay cells are primed with interleukin 5 and the ability of histaminergic ligands to promote migration of eosinophils across a permeable membrane is studied. The number of cells migrating in a defined period is then counted. Agonist potencies are expressed as EC50 values. Antagonists can also be studied by pre-incubating eosinophils with the compound and then assessing the inhibitory effects on histamine (or other suitable ligand) on eosinophil chemotaxis. The experiments can be performed in one of two ways. Firstly, by increasing the concentration of antagonist versus fixed concentration of agonist and calculating the IC50 for each antagonist. Secondly, by increasing the concentration of antagonist versus increasing the concentration of agonist and expressing the antagonist potency as a pkb or pA2 value, as appropriate.

histamine H4 receptor = target: T1, histamine H4 receptor (Homo sapiens, UniProt Q9H3N8); experiment: Histamine H4 receptor radioligand binding, HEK293 cell line membranes
T1 construct: expressed in transfected cells; host or cells: HEK293
From the text: The cDNA for the human histamine H3 and H4 receptor can be expressed in a suitable cell line such as HEK293 or CHO. In addition membranes can be prepared from tissues or cells which naturally express either the histamine H3 and/or H4 receptor. Affinity can be assessed at either receptor by assessing the ability of ligands to inhibit the binding of a suitable radioactively labelled ligand to membranes containing either the histamine H3 or H4 receptor. The potency of compounds is compared by calculating their pKI values.

human eosinophils [2] = experiment: Promotion of chemotaxis of interleukin 5 primed human isolated eosinophils (agonist mode); format: cell-based; conditions: interleukin 5 priming; for promotion of chemotaxis of human eosinophils: concentrations of from 10^−4 to 10^−5 M
Procedure: as §1

T1 sequence (Q9H3N8 whole entry): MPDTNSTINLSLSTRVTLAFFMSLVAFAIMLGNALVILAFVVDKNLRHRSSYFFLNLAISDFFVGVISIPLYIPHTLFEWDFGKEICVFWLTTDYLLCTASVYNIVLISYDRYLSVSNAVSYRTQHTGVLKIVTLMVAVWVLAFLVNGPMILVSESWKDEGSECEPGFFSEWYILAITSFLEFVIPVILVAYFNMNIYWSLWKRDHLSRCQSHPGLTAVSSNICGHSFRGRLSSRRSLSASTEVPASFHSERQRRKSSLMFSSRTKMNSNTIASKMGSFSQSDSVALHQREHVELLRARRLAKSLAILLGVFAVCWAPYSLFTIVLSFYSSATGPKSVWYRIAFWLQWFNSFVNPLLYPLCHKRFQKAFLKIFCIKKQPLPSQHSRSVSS

Question: For `COc1ccc(CN(CCN(C)C)c2ccccn2)cc1` [mepyramine maleate], which “effect on histamine-induced chemotaxis” value (human eosinophils [1]) is on record?
Answer: Its value is “little or no effect”.

Question: Which Ki (histamine H4 receptor) does the source give for `NC(=NCc1ccc(Cl)cc1)SCCCc1cnc[nH]1` [Clobenpropit] here?
Answer: Its Ki is 6.61 nM.

Question: Which IC50 (human eosinophils [1]) does the source give for `S=C(NC1CCCCC1)N1CCC(c2cnc[nH]2)CC1` [thioperamide maleate] here?
Answer: Its IC50 is 830 nM.

Question: How did the “promotion of chemotaxis of human isolated eosinophils” value (human eosinophils [2]; concentration range 10^−8 to 10^−5 M) turn out when `NCCc1c[nH]cn1` [histamine] was run?
Answer: Its value is “promoted chemotaxis”.

Question: With `CN/C(=N/CCSCc1nc[nH]c1C)NC#N` [cimetidine] as the compound, how does the “effect on histamine-induced chemotaxis” value (human eosinophils [1]) read?
Answer: The value was “little or no effect”.

Question: With `CN(C)CCCSC(=N)N` [dimaprit] as the compound, how does the “promotion of chemotaxis of human eosinophils” value (human eosinophils [2]) read?
Answer: The value was “did not promote chemotaxis”.

Question: For `N=C(N)SCCc1cnc[nH]1` [imetit], which “promotion of chemotaxis of human eosinophils” value (human eosinophils [2]) is on record?
Answer: Its value is “did not promote chemotaxis”.

Question: How did the IC50 (human eosinophils [1]) turn out when `NC(=NCc1ccc(Cl)cc1)SCCCc1cnc[nH]1` [clobenpropit dihydrobromide] was run?
Answer: The IC50 was 1500 nM.

Question: With `CC(CCCCC(=O)Nc1ccc(C(F)(F)F)cc1)NCCc1cnc[nH]1` (stereo not drawn) [HTMT] as the compound, how does the “promotion of chemotaxis of human eosinophils” value (human eosinophils [2]) read?
Answer: The value was “did not promote chemotaxis”.
